Experiment [1] has as its system Immortalised Mouse Dermal Fibroblasts (MDFs). The experiment is described as follows: Cellular assay: inhibition of TSI induced necroptosis, CellTitre-Glo viability. The note with it: MDF, 3 hours TSI cocktail, read-out: Inhibition of TSI-induced necroptosis (IC50 cell-based assay) in MDF. In short, it runs like this:
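Immortalised mouse dermal fibroblasts (2200 cells/well) pretreated 30 min with compound, 10-point 1:3 series from 36 μM, 0.3% DMSO. Then 3 h at 37° C. with TNF (100 ng/ml), Smac mimetic (500 nM) and IDN-6556 (10 μM). CellTiter-Glo luminescence normalised to DMSO (100%) and DMSO+TSI (0%); IC50 from 4-parameter logistic fit.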

In experiment [2] the target is human MLKL (full length) (Homo sapiens (Human), UniProt Q8NB16). The experiment in a line: KINOMEscan binding assay, human MLKL (full length). In short, it runs like this:
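KINOMEscan competition binding using kinase-tagged T7 phage or HEK-293-produced DNA-tagged protein captured on ligand beads, with eluted protein quantified by qPCR. Compounds were run as an 11-point 3-fold series, top 30,000 nM, in 1% DMSO. Kd was fitted with the Hill equation, slope fixed at −1.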

Where [3] appears, read: KINOMEscan, Table 21, read-out: Human MLKL (full-length) (KD).
Setting [4] is: Mus musculus, Fibroblast, Table 27.
The mark [5] stands for this setting: hMLKL, Table 25, read-out: MLKL (KD).

Read-outs that look alike come from different tables or passages of the source. A value given as a limit tells only on which side of the number the result lay.

Sequence of human MLKL (full length) (Q8NB16 whole entry): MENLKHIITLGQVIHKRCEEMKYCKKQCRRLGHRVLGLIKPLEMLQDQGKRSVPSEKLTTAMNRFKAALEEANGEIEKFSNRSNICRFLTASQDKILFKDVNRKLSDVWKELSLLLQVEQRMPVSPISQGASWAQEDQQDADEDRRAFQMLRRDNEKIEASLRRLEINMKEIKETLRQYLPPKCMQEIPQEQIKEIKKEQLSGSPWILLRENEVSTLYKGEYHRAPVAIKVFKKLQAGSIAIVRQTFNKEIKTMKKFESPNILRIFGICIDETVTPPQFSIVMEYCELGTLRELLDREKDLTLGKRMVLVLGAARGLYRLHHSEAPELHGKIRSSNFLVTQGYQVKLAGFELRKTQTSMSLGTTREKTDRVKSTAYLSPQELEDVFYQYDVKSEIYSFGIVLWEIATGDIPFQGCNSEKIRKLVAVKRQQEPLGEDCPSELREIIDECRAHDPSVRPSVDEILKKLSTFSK

For the compound `Nc1ncc(-c2cnn(C3CCOCC3)c2)c2[nH]nc(-c3ccc(NS(=O)(=O)C(F)F)c(OCc4cccc(Cl)c4)c3)c12` [Compound 131], the IC50 in experiment [1] (Table 24) was 1 to 10 µM. Also, in experiment [2] (setting [3]), the Kd lay in the range of 0.001 to 0.1 µM.

Consider `Cc1ncsc1-c1ccc(CNC(=O)[C@@H]2C[C@@H](O)CN2C(=O)[C@@H](NC(=O)COCCOCCn2cc(-c3cnc(N)c4c(-c5ccc(NS(=O)(=O)C(F)F)c(O[C@@H](C)c6ccc(F)cc6)c5)nn(C)c34)cn2)C(C)(C)C)cc1` [Compound 1006, (2S,4R)-1-[(2S)-2-(2-{2-[2-(4-{4-amino-3-[4-(difluoromethanesulfonamido)-3-[(1S)-1-(4-fluorophenyl)ethoxy]phenyl]-1-methyl-1H-pyrazolo[4,3-c]pyridin-7-yl}-1H-pyrazol-1-yl)ethoxy]ethoxy}acetamido)-3,3-dimethylbutanoyl]-4-hydroxy-N-{[4-(4-methyl-1,3-thiazol-5-yl)phenyl]methyl}pyrrolidine-2-carboxamide], for which the IC50 in experiment [1] (setting [4]) was in the range of 1 to 10 µM. In addition, in experiment [2] (setting [5]), the Kd is < 0.01 µM.

Turning to `Cc1ncsc1-c1ccc(CNC(=O)[C@@H]2C[C@@H](O)CN2C(=O)[C@@H](NC(=O)CCCCCCn2cc(-c3cnc(N)c4c(-c5ccc(NS(=O)(=O)C(F)F)c(O[C@@H](C)c6ccc(F)cc6)c5)nn(C)c34)cn2)C(C)(C)C)cc1` [Compound 1008, (2S,4R)-1-[(2S)-2-[7-(4-{4-amino-3-[4-(difluoromethanesulfonamido)-3-[(1 S)-1-(4-fluorophenyl)ethoxy]phenyl]-1-methyl-1H-pyrazolo[4,3-c]pyridin-7-yl}-1H-pyrazol-1-yl)heptanamido]-3,3-dimethylbutanoyl]-4-hydroxy-N-{[4-(4-methyl-1,3-thiazol-5-yl)phenyl]methyl}pyrrolidine-2-carboxamide], the IC50 in experiment [1] (setting [4]) is < 1 µM. Moreover, the Kd in experiment [2] (setting [5]) was < 0.01 µM.

Consider `Cc1ncsc1-c1ccc(CNC(=O)[C@@H]2C[C@@H](O)CN2C(=O)[C@@H](NC(=O)CCN2CCCC(n3cc(-c4cnc(N)c5c(-c6ccc(NS(=O)(=O)C(F)F)c(O[C@@H](C)c7ccc(F)cc7)c6)nn(C)c45)cn3)C2)C(C)(C)C)cc1` (stereo partly drawn) [Compound 1014, (2S,4R)-1-[(2S)-2-{3-[3-(4-{4-amino-3-[4-(difluoromethanesulfonamido)-3-[(1S)-1-(4-fluorophenyl)ethoxy]phenyl]-1-methyl-1H-pyrazolo[4,3-c]pyridin-7-yl}-1H-pyrazol-1-yl)piperidin-1-yl]propanamido}-3,3-dimethylbutanoyl]-4-hydroxy-N-{[4-(4-methyl-1,3-thiazol-5-yl)phenyl]methyl}pyrrolidine-2-carboxamide], for which the 50% inhibitory concentration (IC50) in experiment [1] (setting [4]) lay in the range of 1 to 10 µM.

For `Cc1ncsc1-c1ccc(CNC(=O)[C@@H]2C[C@@H](O)CN2C(=O)[C@@H](NC(=O)COCCN2CCCC(n3cc(-c4cnc(N)c5c(-c6ccc(NS(=O)(=O)C(F)F)c(O[C@@H](C)c7ccc(F)cc7)c6)nn(C)c45)cn3)C2)C(C)(C)C)cc1` (stereo partly drawn) [Compound 1015, (2S,4R)-1-[(2S)-2-(2-{2-[3-(4-{4-amino-3-[4-(difluoromethanesulfonamido)-3-[(1S)-1-(4-fluorophenyl)ethoxy]phenyl]-1-methyl-1H-pyrazolo[4,3-c]pyridin-7-yl}-1H-pyrazol-1-yl)piperidin-1-yl]ethoxy}acetamido)-3,3-dimethylbutanoyl]-4-hydroxy-N-{[4-(4-methyl-1,3-thiazol-5-yl)phenyl]methyl}pyrrolidine-2-carboxamide], the IC50 in experiment [1] (setting [4]) lay in the range of 1 to 10 µM. Further, the Kd in experiment [2] (setting [5]) was < 0.01 µM.

For the compound `Cc1ncsc1-c1ccc(CNC(=O)[C@@H]2C[C@@H](O)CN2C(=O)[C@@H](NC(=O)COCCN2CCC(n3cc(-c4cnc(N)c5c(-c6ccc(NS(=O)(=O)C(F)F)c(O[C@@H](C)c7ccc(F)cc7)c6)nn(C)c45)cn3)CC2)C(C)(C)C)cc1` [Compound 1018, (2S,4R)-1-[(2S)-2-(2-{2-[4-(4-{4-amino-3-[4-(difluoromethanesulfonamido)-3-[(1S)-1-(4-fluorophenyl)ethoxy]phenyl]-1-methyl-1H-pyrazolo[4,3-c]pyridin-7-yl}-1H-pyrazol-1-yl)piperidin-1-yl]ethoxy}acetamido)-3,3-dimethylbutanoyl]-4-hydroxy-N-{[4-(4-methyl-1,3-thiazol-5-yl)phenyl]methyl}pyrrolidine-2-carboxamide], the IC50 in experiment [1] (setting [4]) lay in the range of 1 to 10 µM. In addition, in experiment [2] (setting [5]), the Kd was < 0.01 µM.

`C[C@H](Oc1cc(-c2nn(C)c3c(-c4cnn(CCCCCCCOc5cccc6c5C(=O)N(C5CCC(=O)NC5=O)C6=O)c4)cnc(N)c23)ccc1NS(=O)(=O)C(F)F)c1ccc(F)cc1` (stereo partly drawn) [Compound 1031, N-(4-{4-amino-7-[1-(7-{[2-(2,6-dioxopiperidin-3-yl)-1,3-dioxo-2,3-dihydro-1H-isoindol-4-yl]oxy}heptyl)-1H-pyrazol-4-yl]-1-methyl-1H-pyrazolo[4,3-c]pyridin-3-yl}-2-[(1 S)-1-(4-fluorophenyl)ethoxy]phenyl)-1,1-difluoromethanesulfonamide]: the IC50 in experiment [1] (setting [4]) is < 1 µM. Further, the Kd in experiment [2] (setting [5]) was in the range of 0.01 to 1 µM.

In the case of “N-(4-(4-amino-1-methyl-7-(1-(1,2,2-trimethylpiperidin-4-yl)-1H-pyrazol-4-yl)-1H-pyrazolo[4,3-c]pyridin-3-yl)-2-((S)-1-(4-fluorophenyl)ethoxy)phenyl)-1,1-difluoromethanesulfonamide [Compound 113]”, in experiment [1] (Table 24), the IC50 is < 1 µM. Moreover, in experiment [2] (setting [3]), the Kd is < 0.001 µM.

As a reminder, the IC50 is the concentration that gives 50% inhibition. What is called Kd is the constant that tells how readily two partners part at equilibrium.

The values are drawn from patent publication US20250115598A1 (Anaxis Pharma Pty Ltd, priority 2021, published 2025).
